Measurements reported in ChEMBL document CHEMBL1154270, “Light-independent metabolomics of endophytic Thielavia subthermophila provides insight into microbial hypericin biosynthesis” (J Nat Prod, 2009).
Calls of active or inactive are those of the source. No cut-off for these calls is given here.

How the values were obtained:
[1] = tested on: THP-1; assay: Cytotoxicity against human THP1 cells after 48 hrs assessed morphological changes compound exposed to light for 20 mins before treatment; format: functional, cell-based
[2] = tested on: THP-1; assay: Cytotoxicity against human THP1 cells after 48 hrs assessed as morphological changes in the dark condition; format: functional, cell-based

Cc1cc(O)c2c(c1)Cc1cc(O)cc(O)c1C2=O
Activity [1]: Active
Activity [2]: Active

Cc1cc(O)c2c(=O)c3c(O)cc(O)c4c5c(O)cc(O)c6c(=O)c7c(O)cc(C)cc7c(c65)c(c2c1)c34
Activity [1]: Active
Activity [2]: Active

Cc1cc(O)c2c(=O)c3c(O)cc(O)c4c5c(O)cc(O)c6c(=O)c7c(O)cc(C)c8c1c2c(c34)c(c78)c65
Activity [1]: Active
Activity [2]: Active

Cc1cc(O)c2c(c1)C(=O)c1cc(O)cc(O)c1C2=O
Activity [1]: Active
Activity [2]: Active
